Measurements reported in ChEMBL document CHEMBL1201862, “PubChem BioAssay data set” (2004).
The source made the active and inactive calls.

Columns and labels:
[1] = A cytotoxicity screen of small molecule inhibitors of the PhoP region in Salmonella typhi identified in the primary screen. [Related pubchem assays: 1850, 1864, 1985 ]; assay type: functional
[2] = cytotoxicity toward NIH3T3 fibroblasts, dose response, counter-screen, cell-based, ATP luminescence, mouse fibroblasts (AID 2010); assay type: functional;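 further: cells exposed to compound for about 90 hours before reading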
[3] = inhibitors of intracellular T. cruzi replication, confirmation, NIH3T3 host cells, beta-gal luminescence (AID 2044); assay type: functional, cell-based;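 further: intracellular parasites grown in NIH/3T3 mouse fibroblasts as host cells; luminescent beta-galactosidase reporter signal from transgenic T. cruzi replicating inside host cells; inhibitors lower the luminescence signal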
cells [4] = assay: cells
[5] = MC4R antagonists, dose response, counter-screen for LGR2 antagonist project, cell-based, plate reader, cherry pick (AID 743444); assay type: functional;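 further: transfected HEK 293 cells stimulated with alpha-MSH peptide; potency of inhibitors of the alpha-MSH evoked signal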
INS1 = assay: beta cell apoptosis inhibitors, cytokine rescue, dose response, luminescence, retest (AID 449756); assay type: functional, cell-based; conditions: Rattus norvegicus;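 further: cell death triggered by IL-1 beta plus TNF-alpha plus IFN-gamma mixture; protective hits raise ATP signal compared with cytokine alone wells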
[6] = biological target: Peroxisome proliferator-activated receptor gamma/Nuclear receptor coactivator 2 (Homo sapiens, UniProt P37231); assay: (§1) TR-FRET dose response biochemical High Throughput Screening assay for agonists of the steroid receptor coactivator 2 (SRC-2) recruitment by the peroxisome proliferator-activated receptor gamma (PPAR gamma): non-selective agonists. [Related pubchem assays: 1297, 1032 ]; assay type: functional
Sequence of Peroxisome proliferator-activated receptor gamma/Nuclear receptor coactivator 2 (P37231 whole entry): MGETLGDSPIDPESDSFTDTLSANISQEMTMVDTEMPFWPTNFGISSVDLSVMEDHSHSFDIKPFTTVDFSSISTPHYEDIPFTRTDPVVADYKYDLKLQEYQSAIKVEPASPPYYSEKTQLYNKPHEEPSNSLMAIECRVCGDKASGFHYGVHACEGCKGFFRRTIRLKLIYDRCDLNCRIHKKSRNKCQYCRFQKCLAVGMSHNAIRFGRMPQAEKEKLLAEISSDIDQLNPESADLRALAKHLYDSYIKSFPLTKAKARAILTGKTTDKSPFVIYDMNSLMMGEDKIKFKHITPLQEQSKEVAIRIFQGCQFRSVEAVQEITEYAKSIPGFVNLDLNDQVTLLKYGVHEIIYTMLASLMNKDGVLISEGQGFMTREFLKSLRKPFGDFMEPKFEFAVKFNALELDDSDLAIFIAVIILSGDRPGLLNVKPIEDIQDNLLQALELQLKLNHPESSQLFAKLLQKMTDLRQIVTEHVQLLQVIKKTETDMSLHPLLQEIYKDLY
Sequence of Peroxisome proliferator-activated receptor gamma/Nuclear receptor coactivator 2 (Q15596 whole entry, further chain): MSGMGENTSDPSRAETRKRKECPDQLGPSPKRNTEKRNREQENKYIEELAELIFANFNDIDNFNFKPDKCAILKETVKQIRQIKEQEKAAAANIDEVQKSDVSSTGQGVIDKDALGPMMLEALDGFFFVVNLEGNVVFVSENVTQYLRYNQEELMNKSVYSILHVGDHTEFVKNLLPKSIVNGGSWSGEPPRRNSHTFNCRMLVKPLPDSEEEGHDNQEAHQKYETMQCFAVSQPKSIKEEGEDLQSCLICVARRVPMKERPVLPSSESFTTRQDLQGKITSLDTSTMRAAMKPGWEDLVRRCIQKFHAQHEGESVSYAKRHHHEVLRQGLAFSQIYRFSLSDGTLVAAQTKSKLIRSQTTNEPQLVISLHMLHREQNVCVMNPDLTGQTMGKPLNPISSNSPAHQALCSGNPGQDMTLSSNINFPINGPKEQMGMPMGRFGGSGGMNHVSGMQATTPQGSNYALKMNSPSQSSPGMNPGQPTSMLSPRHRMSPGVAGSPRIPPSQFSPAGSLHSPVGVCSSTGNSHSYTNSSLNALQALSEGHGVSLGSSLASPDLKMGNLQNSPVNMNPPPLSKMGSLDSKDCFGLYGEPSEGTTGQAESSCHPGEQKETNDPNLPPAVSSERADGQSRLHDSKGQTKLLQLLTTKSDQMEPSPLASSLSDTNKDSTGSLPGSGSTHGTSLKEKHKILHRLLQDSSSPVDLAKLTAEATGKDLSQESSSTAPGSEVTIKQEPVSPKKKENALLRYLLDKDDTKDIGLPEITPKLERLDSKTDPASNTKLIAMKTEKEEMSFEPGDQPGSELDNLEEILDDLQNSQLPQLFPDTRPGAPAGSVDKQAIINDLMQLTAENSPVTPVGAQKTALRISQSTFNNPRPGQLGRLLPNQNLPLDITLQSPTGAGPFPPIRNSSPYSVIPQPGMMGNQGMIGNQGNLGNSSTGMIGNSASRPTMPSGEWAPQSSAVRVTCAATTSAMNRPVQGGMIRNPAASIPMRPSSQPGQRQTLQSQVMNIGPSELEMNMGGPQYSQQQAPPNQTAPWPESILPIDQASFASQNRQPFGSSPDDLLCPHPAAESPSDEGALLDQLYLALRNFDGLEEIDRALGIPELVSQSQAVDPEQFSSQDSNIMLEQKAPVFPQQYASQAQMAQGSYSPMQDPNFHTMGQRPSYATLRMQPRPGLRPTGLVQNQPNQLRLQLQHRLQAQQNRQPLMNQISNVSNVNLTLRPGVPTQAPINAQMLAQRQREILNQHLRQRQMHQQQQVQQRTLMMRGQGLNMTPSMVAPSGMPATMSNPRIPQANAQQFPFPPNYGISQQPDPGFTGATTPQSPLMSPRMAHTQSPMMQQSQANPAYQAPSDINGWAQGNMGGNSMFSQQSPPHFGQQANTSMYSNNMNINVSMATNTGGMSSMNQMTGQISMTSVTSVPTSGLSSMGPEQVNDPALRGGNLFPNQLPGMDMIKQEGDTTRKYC

[7] = biological target: Peroxisome proliferator-activated receptor gamma/Nuclear receptor coactivator 1 (Homo sapiens, UniProt P37231); assay: as §1, with “1 (SRC-1)” for “2 (SRC-2)”, “assays (depositor defined):AID1300, AID1808, AID504735, AID631]” for “assays: 1297, 1032 ]”; assay type: protein assay
Sequence of Peroxisome proliferator-activated receptor gamma/Nuclear receptor coactivator 1 (P37231 whole entry): as the sequence (P37231 whole entry) above
Sequence of Peroxisome proliferator-activated receptor gamma/Nuclear receptor coactivator 1 (Q15788 whole entry, further chain): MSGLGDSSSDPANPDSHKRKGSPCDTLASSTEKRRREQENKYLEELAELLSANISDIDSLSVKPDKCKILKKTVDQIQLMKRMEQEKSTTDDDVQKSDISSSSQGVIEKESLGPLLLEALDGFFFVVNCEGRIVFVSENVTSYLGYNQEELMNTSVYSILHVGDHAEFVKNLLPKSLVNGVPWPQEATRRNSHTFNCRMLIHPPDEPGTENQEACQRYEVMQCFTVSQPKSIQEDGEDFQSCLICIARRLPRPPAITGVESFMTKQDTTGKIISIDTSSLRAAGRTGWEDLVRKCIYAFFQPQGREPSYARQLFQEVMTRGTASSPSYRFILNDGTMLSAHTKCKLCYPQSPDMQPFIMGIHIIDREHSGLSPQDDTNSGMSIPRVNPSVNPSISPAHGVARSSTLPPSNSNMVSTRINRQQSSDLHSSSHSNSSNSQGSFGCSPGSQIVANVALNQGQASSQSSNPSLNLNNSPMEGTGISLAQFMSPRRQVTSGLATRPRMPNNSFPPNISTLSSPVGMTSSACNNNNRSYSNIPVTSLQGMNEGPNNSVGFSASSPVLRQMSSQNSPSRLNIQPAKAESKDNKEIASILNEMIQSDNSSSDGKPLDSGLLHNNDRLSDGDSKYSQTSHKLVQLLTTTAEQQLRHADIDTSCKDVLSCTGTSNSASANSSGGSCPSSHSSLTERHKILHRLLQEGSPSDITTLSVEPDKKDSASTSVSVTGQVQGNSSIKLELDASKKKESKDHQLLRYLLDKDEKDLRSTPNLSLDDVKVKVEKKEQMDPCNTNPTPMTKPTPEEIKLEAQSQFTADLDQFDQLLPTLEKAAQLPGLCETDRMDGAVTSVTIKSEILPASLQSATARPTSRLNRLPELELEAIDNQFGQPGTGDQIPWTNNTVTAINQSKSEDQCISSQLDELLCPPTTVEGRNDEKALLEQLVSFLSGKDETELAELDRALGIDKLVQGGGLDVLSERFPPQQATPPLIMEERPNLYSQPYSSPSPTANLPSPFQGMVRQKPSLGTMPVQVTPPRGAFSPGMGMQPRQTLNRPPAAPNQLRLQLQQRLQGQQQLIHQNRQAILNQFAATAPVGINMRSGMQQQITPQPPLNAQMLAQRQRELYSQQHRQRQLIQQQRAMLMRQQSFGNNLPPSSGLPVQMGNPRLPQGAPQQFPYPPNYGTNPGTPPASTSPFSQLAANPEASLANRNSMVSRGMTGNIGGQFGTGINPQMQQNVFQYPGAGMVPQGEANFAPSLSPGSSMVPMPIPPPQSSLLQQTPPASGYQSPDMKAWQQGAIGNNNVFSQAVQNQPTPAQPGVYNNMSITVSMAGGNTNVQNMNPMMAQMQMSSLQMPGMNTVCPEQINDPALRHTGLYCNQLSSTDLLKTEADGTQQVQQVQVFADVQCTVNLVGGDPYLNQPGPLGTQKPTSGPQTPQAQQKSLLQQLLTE

[8] = biological target: Peroxisome proliferator-activated receptor gamma/Nuclear receptor coactivator 3 (Homo sapiens, UniProt P37231); assay: as §1, with “3 (SRC-3)” for “2 (SRC-2)”, “1301 (Confirmation screen.), 1048 (Primary screen.)]” for “1297, 1032 ]”; assay type: functional
[9] = HepG2 cell cytotoxicity, dose response, cytotoxicity control, ATP luminescence, cherry-pick, activator set 2 (AID 1053143); assay type: functional, cell-based
[10] = Luminescence Cell-Based Dose Response HTS to Identify Inhibitors of 5'UTR Stem-Loop Driven Prion Protein mRNA Translation in H4 Neuroglioblastoma Cells. [Related pubchem assays: 1827 (Project Summary), 1813 (Primary HTS)]; assay type: functional
cells [11] = assay type: functional, cell-based
cells [12] = assay type: functional, cell-based; remark: listed apart in the source
HEK293 = assay: inhibitors of LMP1-driven NF-kB reporter, dose response, cell-based, HEK293, luciferase, cherry-pick (AID 588343); assay type: functional; conditions: Homo sapiens
Nonstructural protein 1 = Nonstructural protein 1 (Influenza A virus, UniProt Q194T2); assay type: functional, Influenza A virus (A/California/07/2009(H1N1))
Sequence of Nonstructural protein 1 (Q194T2 whole entry): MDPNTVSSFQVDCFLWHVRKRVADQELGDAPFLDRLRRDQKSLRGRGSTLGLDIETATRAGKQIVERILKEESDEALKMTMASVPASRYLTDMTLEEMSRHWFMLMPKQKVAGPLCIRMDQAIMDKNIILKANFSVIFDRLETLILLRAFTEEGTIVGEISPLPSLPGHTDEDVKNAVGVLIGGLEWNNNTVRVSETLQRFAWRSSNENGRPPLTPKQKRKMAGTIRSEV

BJ [13] = assay: cytotoxicity toward BJ-TERT-LT-ST fibroblasts, dose response, cell-based, RAS-independent, luminescence (AID 1935); assay type: functional; conditions: Homo sapiens;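 further: BJ fibroblasts immortalized with TERT plus LT and ST oncogenes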
BJ [14] = assay: cells; assay type: functional, cell-based; conditions: Homo sapiens
[15] = inhibitors of firefly luciferase expression or activity, dose response, H4 neuroglioma cells, luminescence (AID 1990); assay type: functional, cell-based
[16] = cytotoxicity toward DRD oncogenic fibroblasts, dose response, cell-based, non-viral oncogenic, luminescence (AID 1934); assay type: functional; conditions: Homo sapiens
BJ [17] = assay: cytotoxicity toward BJ-TERT fibroblasts, dose response, cell-based, RAS-independent, luminescence (AID 1933); assay type: functional; conditions: Homo sapiens
[18] = A Cell Based Secondary Assay To Explore Cytotoxicity of Compounds that Sensitize Mycobacterium Tuberculosis to Beta-Lactam Antibiotics.; assay type: functional

CC1(C)CC(=O)C2=C(C1)N(c1ccc(F)cc1)C(=O)CC2c1ccsc1 (stereo not given)
EC50 [1]: > 50 µM (active)

CC(=O)Nc1nc(-c2cccc3ccccc23)cs1
EC50 [2]: > 60 µM (not active) | EC50 [3]: < 100 nM (active) | EC50 (cells [4]): 264 nM (active)

Cc1ccccc1Oc1ccc(Oc2ccccc2C)nn1
EC50 [1]: > 50 µM (active)

Cc1ccc2nc(-c3ccc(NC(=O)c4cccnc4)cc3)oc2c1
AC50 [5]: 29.2 µM (active) | AC50 (INS1): 4.63 µM (active)

O=C(Nc1ccc(N2CCOCC2)c(Cl)c1)c1ccccc1F
EC50 [1]: > 50 µM (active)

C=CCn1c(NC(C)c2cc(Cl)ccc2O)nc2ccccc21 (stereo not given)
EC50 [6]: > 79.4 µM (not active) | EC50 [7]: > 79.4 µM (inactive) | EC50 [8]: 13.3 µM (not active) | EC50 [1]: > 50 µM (active)

CCOC(=O)c1ccc2nc(NC(=O)c3ccco3)sc2c1
AC50 [9]: 26 µM (active)

C(=N\Nc1nc2ccccc2[nH]1)/c1cccc2cccnc12
EC50 [10]: > 120 µM (not active) | EC50 (cells [11]): 97.6 µM (active) | EC50 (cells [12]): 66.2 µM (active) | AC50 (HEK293): 2.96 µM (active) | IC50 (Nonstructural protein 1): 13.4 µM (active) | EC50 (BJ [13]): 3.36 µM (active) | EC50 (BJ [14]): 3.01 µM (active) | EC50 [15]: 5.09 µM (active) | EC50 [16]: 2.33 µM (active) | AC50 [9]: 26 µM (active) | EC50 (BJ [17]): 1.53 µM (active)

Cn1c(/C=N/c2nc3ccccc3[nH]2)nc2ccccc21
CC50 [18]: 37.4 µM (active)
